From ChEMBL document CHEMBL1145862, “Identification of "latent hits" in compound screening collections” (J Med Chem, 2003)

What was measured:
[1] = target: T1, Estrogen receptor (Homo sapiens) (UniProt P03372); experiment: Percent change in 17-beta-estradiol mediated transcriptional activation in CHO cells expressing human estrogen receptor alpha at 10e-6 M; type: functional, cell-based
T1 sequence (whole entry): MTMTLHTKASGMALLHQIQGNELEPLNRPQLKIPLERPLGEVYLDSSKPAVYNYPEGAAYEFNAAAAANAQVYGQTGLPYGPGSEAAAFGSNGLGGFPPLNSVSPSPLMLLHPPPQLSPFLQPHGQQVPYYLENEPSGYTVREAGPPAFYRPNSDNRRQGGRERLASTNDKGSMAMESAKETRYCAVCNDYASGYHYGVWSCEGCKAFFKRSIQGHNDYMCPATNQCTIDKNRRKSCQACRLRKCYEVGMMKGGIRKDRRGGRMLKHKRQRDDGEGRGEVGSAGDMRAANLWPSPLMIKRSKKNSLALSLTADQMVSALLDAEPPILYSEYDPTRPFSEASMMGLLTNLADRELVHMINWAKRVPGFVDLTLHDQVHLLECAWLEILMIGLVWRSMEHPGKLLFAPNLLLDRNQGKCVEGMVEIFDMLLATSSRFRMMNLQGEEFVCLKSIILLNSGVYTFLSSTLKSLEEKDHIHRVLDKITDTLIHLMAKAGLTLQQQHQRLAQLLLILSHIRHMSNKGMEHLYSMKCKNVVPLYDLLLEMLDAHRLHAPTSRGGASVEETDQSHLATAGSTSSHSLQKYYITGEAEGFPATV

Estrogen receptor = target: T2, Estrogen receptor (Homo sapiens, UniProt P03372); experiment: Transcriptional agonist activity in Chinese hamster ovary cells expressing human Estrogen Receptor alpha; type: functional, cell-based
T2 sequence (P03372 whole entry): T1 sequence (whole entry)

[2] = target: T1, Estrogen receptor (Homo sapiens); settings: CHO
[3] = target: T1, Estrogen receptor (Homo sapiens); experiment: Relative Binding Affinity for human estrogen receptor alpha expressed in CHO cells compared to Diethylstilbestrol Dimethyl Ether; type: cell-based
[4] = target: T1, Estrogen receptor (Homo sapiens); experiment: Relative binding affinity for human estrogen receptor alpha expressed in CHO cells compared to Diethylstilbestrol Methyl Ether; type: cell-based

Compound	EC50 (Estrogen receptor)	also measured
COc1ccc(-c2cccc(-c3ccc(OC)cc3)c2)cc1	> 10000 nM	HTS data [1]: 7
Oc1ccc(-c2cccc(-c3ccc(O)cc3)c2)cc1	800 nM	
COc1ccc2c(c1)CC[C@@H]1[C@@H]2CC[C@]2(C)[C@@H](OC)CC[C@@H]12		HTS data [2]: 0
Oc1ccc(-c2ccc(-c3ccc(O)cc3)cc2)cc1	1200 nM	
Oc1ccc(-c2cc(-c3ccc(O)cc3)cc(-c3ccc(O)cc3)c2)cc1	80 nM	
CC/C(=C(/CC)c1ccc(OC)cc1)c1ccc(OC)cc1		RBA data [3]: -1.25
COc1ccc(C2Oc3ccc(O)cc3C(=O)C2C)cc1 (configuration not stated)	> 10000 nM	HTS data [1]: 67
COc1ccc2c(c1)CC[C@@H]1[C@@H]2CC[C@]2(C)[C@@H](O)CC[C@@H]12		HTS data [2]: 76
CC1C(=O)c2cc(O)ccc2OC1c1ccc(O)cc1 (configuration not stated)	4 nM	
CC/C(=C(/CC)c1ccc(OC)cc1)c1ccc(O)cc1		RBA data [4]: 1.31
